Laboratory results: PubChem BioAssay AID2060602 (Molecular Pharmacology Branch, DTP, NCI, 2025)
pIC50: −log10 of the molar value.

System: 648629-189-R-J1-PDC complex spheroids viability
Assay: Anticancer human tumor 648629-189-R-J1-PDC patient-derived bladder carcinoma cell line growth inhibition [CLK]
Conditions: for pIC50: curve of first compound; for viability, T/C: stronger effect = lower value
Outline: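 Multi-cell-type spheroids combined patient-derived tumor cells with HUVEC endothelial cells and human mesenchymal stem cells. Paired agents were dosed in half-log steps down from about clinical Cmax, or from 10 microM where Cmax was unknown.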

[1] = second compound 0.0316 µM, first compound 0.0316 µM
[2] = second compound 0.0316 µM, first compound 0.1 µM
[3] = second compound 0.0316 µM, first compound 0.316 µM
[4] = second compound 0.0316 µM, first compound 1 µM
[5] = second compound 0.1 µM, first compound 0.0316 µM
[6] = second compound 0.1 µM, first compound 0.1 µM
[7] = second compound 0.1 µM, first compound 0.316 µM
[8] = second compound 0.1 µM, first compound 1 µM
[9] = second compound 0.316 µM, first compound 0.0316 µM
[10] = second compound 0.316 µM, first compound 0.1 µM
[11] = second compound 0.316 µM, first compound 0.316 µM
[12] = second compound 0.316 µM, first compound 1 µM
[13] = second compound 1 µM, first compound 0.0316 µM
[14] = second compound 1 µM, first compound 0.1 µM
[15] = second compound 1 µM, first compound 0.316 µM
[16] = second compound 1 µM, first compound 1 µM
[17] = second compound 3.16 µM, first compound 0.0316 µM
[18] = second compound 3.16 µM, first compound 0.1 µM
[19] = second compound 3.16 µM, first compound 0.316 µM
[20] = second compound 3.16 µM, first compound 1 µM
[21] = second compound 10 µM, first compound 0.0316 µM
[22] = second compound 10 µM, first compound 0.1 µM
[23] = second compound 10 µM, first compound 0.316 µM
[24] = second compound 10 µM, first compound 1 µM
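Wherever viability, T/C is given: drug exposure lasted seven days before viability readout; 100% = DMSO vehicle control wells.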

CC(=O)O[C@H]1C(=O)[C@@]2(C)[C@H]([C@H](OC(=O)c3ccccc3)[C@]3(O)C[C@H](OC(=O)[C@H](O)[C@@H](NC(=O)c4ccccc4)c4ccccc4)C(C)=C1C3(C)C)[C@]1(OC(C)=O)CO[C@@H]1C[C@@H]2O + CN1CCN(c2cc(C(=O)Nc3cc4cc(-c5cnn(C)c5)ccc4cn3)ccn2)CC1
pIC50 (second compound 0.0316 µM): > 7.50 | pIC50 (second compound 0.1 µM): > 7.50 | pIC50 (second compound 0.316 µM): > 7.50 | pIC50 (second compound 1 µM): > 7.50 | pIC50 (second compound 3.16 µM): > 7.50 | pIC50 (second compound 10 µM): > 7.50 | viability, T/C [1]: 10.9% | viability, T/C [2]: 8.37% | viability, T/C [3]: 9.02% | viability, T/C [4]: 10.6% | viability, T/C (second compound 0.0316 µM, first compound 3.16 µM): 7.39% | viability, T/C (second compound 0.0316 µM, first compound 10 µM): 9.59% | viability, T/C [5]: 7.2% | viability, T/C [6]: 8.42% | viability, T/C [7]: 6.79% | viability, T/C [8]: 7.78% | viability, T/C (second compound 0.1 µM, first compound 3.16 µM): 8.57% | viability, T/C (second compound 0.1 µM, first compound 10 µM): 9.47% | viability, T/C [9]: 9.01% | viability, T/C [10]: 9.65% | viability, T/C [11]: 10.1% | viability, T/C [12]: 9.51% | viability, T/C (second compound 0.316 µM, first compound 3.16 µM): 8.91% | viability, T/C (second compound 0.316 µM, first compound 10 µM): 11.2% | viability, T/C [13]: 0.14% | viability, T/C [14]: 0.13% | viability, T/C [15]: 0.87% | viability, T/C [16]: 0.11% | viability, T/C (second compound 1 µM, first compound 3.16 µM): 0.47% | viability, T/C (second compound 1 µM, first compound 10 µM): 0.64% | viability, T/C [17]: 0.07% | viability, T/C [18]: 1.18% | viability, T/C [19]: 0.13% | viability, T/C [20]: 0.09% | viability, T/C (second compound 3.16 µM, first compound 3.16 µM): 0.11% | viability, T/C (second compound 3.16 µM, first compound 10 µM): 0.1% | viability, T/C [21]: 0.1% | viability, T/C [22]: 0.13% | viability, T/C [23]: 0.2% | viability, T/C [24]: 0.17% | viability, T/C (second compound 10 µM, first compound 3.16 µM): 1.53% | viability, T/C (second compound 10 µM, first compound 10 µM): 0.16%

CCc1c2c(nc3ccc(O)cc13)-c1cc3c(c(=O)n1C2)COC(=O)[C@]3(O)CC + CN1CCN(c2cc(C(=O)Nc3cc4cc(-c5cnn(C)c5)ccc4cn3)ccn2)CC1
pIC50 (second compound 0.0316 µM): > 8.50 | pIC50 (second compound 0.1 µM): > 8.50 | pIC50 (second compound 0.316 µM): > 8.50 | pIC50 (second compound 1 µM): > 8.50 | pIC50 (second compound 3.16 µM): > 8.50 | pIC50 (second compound 10 µM): > 8.50 | viability, T/C (second compound 0.0316 µM, first compound 0.00316 µM): 36.5% | viability, T/C (second compound 0.0316 µM, first compound 0.01 µM): 14.7% | viability, T/C [1]: 7.53% | viability, T/C [2]: 5.28% | viability, T/C [3]: 3.93% | viability, T/C [4]: 3.89% | viability, T/C (second compound 0.1 µM, first compound 0.00316 µM): 29% | viability, T/C (second compound 0.1 µM, first compound 0.01 µM): 15.4% | viability, T/C [5]: 6.89% | viability, T/C [6]: 4.76% | viability, T/C [7]: 4.13% | viability, T/C [8]: 4.88% | viability, T/C (second compound 0.316 µM, first compound 0.00316 µM): 22.5% | viability, T/C (second compound 0.316 µM, first compound 0.01 µM): 16.7% | viability, T/C [9]: 10.8% | viability, T/C [10]: 6.46% | viability, T/C [11]: 6.71% | viability, T/C [12]: 3.75% | viability, T/C (second compound 1 µM, first compound 0.00316 µM): 0.15% | viability, T/C (second compound 1 µM, first compound 0.01 µM): 0.14% | viability, T/C [13]: 0.15% | viability, T/C [14]: 0.06% | viability, T/C [15]: 0.21% | viability, T/C [16]: 1.34% | viability, T/C (second compound 3.16 µM, first compound 0.00316 µM): 0.05% | viability, T/C (second compound 3.16 µM, first compound 0.01 µM): 1.41% | viability, T/C [17]: 0.1% | viability, T/C [18]: 0.07% | viability, T/C [19]: 0.3% | viability, T/C [20]: 0.54% | viability, T/C (second compound 10 µM, first compound 0.00316 µM): 0.05% | viability, T/C (second compound 10 µM, first compound 0.01 µM): 0.52% | viability, T/C [21]: 0.17% | viability, T/C [22]: 0.15% | viability, T/C [23]: 0.22% | viability, T/C [24]: 0.48%
